According to patent US20260109721A1, “IONIZABLE CATIONIC LIPIDS INCORPORATING SILICON: SYNTHESIS AND LNP FORMULATION” (priority 2023, published 2026):

Tested on: HepG2 cell line
Experiment: In vitro toxicity study on HepG2 cell line (resazurin, viability and IC50)
Type: cell-based, human
Details: for IC50: Homo sapiens, lipid toxicity, HepG2, 48 h post-treatment, 6.25-800 μM, read-out: IC50 value, μM (on HepG2 cell)
In short: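 HepG2 cells (1000/well) were treated after overnight incubation with lipids at 6.25–800 μM for 48 h. Viability was read by resazurin fluorescence (530/580 nm) after 5 h at 37 °C, relative to ethanol vehicle controls. IC50 values came from concentration-response curves.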

[1] = HepG2 cells, 6.25 μM lipid, 48 h post-treatment, resazurin, relative to ethanol vehicle controls
[2] = HepG2 cells, 12.5 μM lipid, 48 h post-treatment, resazurin, relative to ethanol vehicle controls
[3] = HepG2 cells, 25 μM lipid, 48 h post-treatment, resazurin, relative to ethanol vehicle controls
[4] = HepG2 cells, 50 μM lipid, 48 h post-treatment, resazurin, relative to ethanol vehicle controls
[5] = HepG2 cells, 100 μM lipid, 48 h post-treatment, resazurin, relative to ethanol vehicle controls
[6] = HepG2 cells, 200 μM lipid, 48 h post-treatment, resazurin, relative to ethanol vehicle controls
[7] = HepG2 cells, 400 μM lipid, 48 h post-treatment, resazurin, relative to ethanol vehicle controls
[8] = HepG2 cells, 800 μM lipid, 48 h post-treatment, resazurin, relative to ethanol vehicle controls

Structure (SMILES)	Viability (%) at different lipid concentrations, mean [1] [%]	Viability (%) at different lipid concentrations, mean [2] [%]	Viability (%) at different lipid concentrations, mean [3] [%]	Viability (%) at different lipid concentrations, mean [4] [%]	Viability (%) at different lipid concentrations, mean [5] [%]	Viability (%) at different lipid concentrations, mean [6] [%]	Viability (%) at different lipid concentrations, mean [7] [%]	Viability (%) at different lipid concentrations, mean [8] [%]	IC50 (resazurin) [µM]	Viability (%) at different lipid concentrations, mean (human, 48 h, 25 μM) [%]
CCCCC/C=C\C/C=C\CCCCCCCCOC(CCCCCCC/C=C\C/C=C\CCCCC)O[Si](C)(C)OCCCCCCN1CCCCC1CO (centres unmarked) [Example 64, (1-((20Z,23Z)-10-((8Z,11Z)-heptadeca-8,11-dien-1-yl)-8,8-dimethyl-7,9,11-trioxa-8-silanonacosa-20,23-dien-1-yl)piperidin-2-yl)methanol]	99.5	98.7	100.3	97.8	97.8	91.7	80.3	47.4	775	–
CCCCC/C=C\C/C=C\CCCCCCCCOC(CCCCCN(C)CC(O)CO)O[Si](C)(C)OCCCCCCCC/C=C\C/C=C\CCCCC (centres unmarked) [Example 66, (22Z,25Z)-4,12,12-trimethyl-10-(((9Z,12Z)-octadeca-9,12-dien-1-yl)oxy)-11,13-dioxa-4-aza-12-silahentriaconta-22,25-diene-1,2-diol]	100.5	97.9	97.2	96.5	94.2	95.5	86.0	42.6	164	–
C#CCN(C)CCCCCCO[Si](C)(C)OC(CCCCCCC/C=C\C/C=C\CCCCC)OCCCCCCCC/C=C\C/C=C\CCCCC (centres unmarked) [Example 67, (20Z,23Z)-10-((8Z,11Z)-heptadeca-8,11-dien-1-yl)-N,8,8-trimethyl-N-(prop-2-yn-1-yl)-7,9,11-trioxa-8-silanonacosa-20,23-dien-1-amine]	100.2	97.1	99.5	95.6	92.6	24.8	3.0	1.7	–	–
CCCCC/C=C\C/C=C\CCCCCCCCOC(CCCCCCC/C=C\C/C=C\CCCCC)O[Si](C)(C)OCCCCCCN(C)Cc1cn(C2[C@H](O)O[C@H](CO)[C@@H](O)[C@@H]2O)nn1 (stereo partly drawn) [Example 68, (4R,5S,6R)-3-(4-((22Z,25Z)-12-((8Z,11Z)-heptadeca-8,11-dien-1-yl)-2,10,10-trimethyl-9,11,13-trioxa-2-aza-10-silahentriaconta-22,25-dien-1-yl)-1H-1,2,3-triazol-1-yl)-6-(hydroxymethyl)tetrahydro-2H-pyran-2,4,5-triol]	99.4	97.7	107.3	120.2	117.6	103.6	68.1	12.3	461	–
CCCCC/C=C\C/C=C\CCCCCCCCOC(CCCCCCC/C=C\C/C=C\CCCCC)O[Si](C)(C)OCCCCCCN(CCO)CCN(CCO)CCCCCCO[Si](C)(C)OC(CCCCCCC/C=C\C/C=C\CCCCC)OCCCCCCCC/C=C\C/C=C\CCCCC (centres unmarked) [Example 71, (26Z,29Z)-16-((8Z,11Z)-heptadeca-8,11-dien-1-yl)-3-((20Z,23Z)-10-((8Z,11Z)-heptadeca-8,11-dien-1-yl)-8,8-dimethyl-7,9,11-trioxa-8-silanonacosa-20,23-dien-1-yl)-6-(2-hydroxyethyl)-14,14-dimethyl-13,15,17-trioxa-3,6-diaza-14-silapentatriaconta-26,29-dien-1-ol]	102.71	102.5	106.2	107.61	93.09	72.87	39.19	9.92	321	–
CCCCCCCC/C=C\CCCCCCCC(OCC(CCCCCCCC)SCCCCC)O[Si](C)(C)OCCCCCCN(CCO)CCO (centres unmarked) [Example 72, (Z)-13-(heptadec-8-en-1-yl)-3-(2-hydroxyethyl)-11,11-dimethyl-16-octyl-10,12,14-trioxa-17-thia-3-aza-11-siladocosan-1-ol]	104.3	94.1	102.5	101.6	100.3	96.6	110.6	103.0	> 800	–
CCCCCCCC/C=C\CCCCCCCC(OCCCCCCCCCCCC1CCCCC1)O[Si](C)(C)OCCCCCCN(CCO)CCO (centres unmarked) [Example 74, (Z)-25-cyclohexyl-13-(heptadec-8-en-1-yl)-3-(2-hydroxyethyl)-11,11-dimethyl-10,12,14-trioxa-3-aza-11-silapentacosan-1-ol]	101.5	100.8	–	112.5	121.9	117.3	103.1	93.8	> 800	107.8
CCCCCCCC/C=C\CCCCCCCC(OCCC(C)CCCC(C)CCCC(C)CCCC(C)C)O[Si](C)(C)OCCCCCCN(CCO)CCO (centres unmarked) [Example 75, (Z)-13-(heptadec-8-en-1-yl)-3-(2-hydroxyethyl)-11,11,17,21,25,29-hexamethyl-10,12,14-trioxa-3-aza-11-silatriacontan-1-ol]	110.3	109.2	105.7	104.5	102.8	112.9	102.4	90.2	> 800	–
CCCCCCCC/C=C\CCCCCCCC(OCCCCCCCCCCCCCCC(C)C)O[Si](C)(C)OCCCCCCN(CCO)CCO (centres unmarked) [Example 76, (Z)-13-(heptadec-8-en-1-yl)-3-(2-hydroxyethyl)-11,11,29-trimethyl-10,12,14-trioxa-3-aza-11-silatriacontan-1-ol]	101.9	100.5	98.5	100.8	112.3	103.8	77.7	70.0	> 800	–
CCCCC/C=C\C/C=C\CCCCCCCCOC(CCCCCCC/C=C\C/C=C\CCCCC)O[Si](C)(C)OCCCCCCN(C)[C@H](CO)Cc1ccccc1 (stereo partly drawn) [Example 77, (2S,23Z,26Z)-2-benzyl-13-((8Z,11Z)-heptadeca-8,11-dien-1-yl)-3,11,11-trimethyl-10,12,14-trioxa-3-aza-11-siladotriaconta-23,26-dien-1-ol]	96.2	99.9	101.0	103.7	100.6	100.5	101.1	73.8	> 800	–
